Laboratory results published in patent US11993640B2, “Treating inflammatory lung disease” (United States Government as represented by the Department …, priority 2019, dated 2024).
Non-standard residues stand in square brackets, D forms with d. Residues, ends and D or L forms follow the SMILES beside them. *: point of attachment. Phenylacetyl(2,3,4,5,6-F5) = O=C(Cc1c(F)c(F)c(F)c(F)c1F)*; Phe(F5) = N[C@@H](Cc1c(F)c(F)c(F)c(F)c1F)C(=O)O; Phe(4-Cl) = N[C@@H](Cc1ccc(Cl)cc1)C(=O)O; hArg = N=C(N)NCCCC[C@H](N)C(=O)O; 12Ado = NCCCCCCCCCCCC(=O)O; Nle = CCCC[C@H](N)C(=O)O; Orn = NCCC[C@H](N)C(=O)O; Abu = CC[C@H](N)C(=O)O; PhAc = O=C(Cc1ccccc1)*

Experiments:
[1] = system: NCI-N87 cells; test: In vitro cell viability (CellTiter 96), stomach cancer N87; type: cell-based, human; conditions: 5 μM, 72 h
Experimental: (§1) The inhibitory effects of the various synthesized GHRH antagonists were tested in cell proliferation assays in various human cancer cell lines including stomach cancer (KATOIII, N87), colon cancer (HT-29), urothelial cancer (J82, RT4), pancreatic cancer (PANC-1, CFPAC-1), prostatic cancer (PC3), breast cancer (MX-1, HCC1806), ovarian cancer (SK-OV-3, OVCAR-3) and lung cancer (HCC827, H460).
(§2) Cell culture. Human cancer cell lines including pancreatic (PANC-1 and CFPAC-1), lung (HCC827 and H460), stomach (NCI-N87 and KATOIII), urothelial (J82, RT4), prostatic (PC3), breast (MX-1 and HCC 1806), colorectal (HT-29), and ovarian (SK-OV-3 and OVCAR-3) were obtained from the American Type Culture Collection (ATCC) and cultured at 37° C. in a humidified 95% air/5% CO2 atmosphere in the medium recommended by ATCC.
(§3) In vitro cell viability. Cell viability was analyzed as follows: cancer cells including pancreatic (PANC-1 and CFPAC-1), lung (HCC827 and H460), stomach (NCI-N87 and KATOIII), urothelial (J82, RT4), prostatic (PC3) and breast (MX-1 and HCC 1806), colorectal (HT-29) and ovarian (SK-OV-3 and OVCAR-3) were grown on 96 well plates to ˜60% confluence, the cells were starved for 24 h in culture medium containing 0.5% FBS. Cells were then treated with GHRH antagonists MIA602 AVR compounds at concentrations of 1, 2.5 or 5 μM, or vehicle (0.1% DMSO) in quintuplicates for 72 hours. The medium was replaced every 48 hours. Cell viability was measured using CellTiter 96 aqueous one solution kit (Promega). Inhibitory effects of tested AVR compounds in comparison to that of MIA602 are presented as inhibitory potency.
(§4) Inhibitory effects of selected AVR compounds in comparison to that of MIA602 are presented as inhibitory potency (e.g., percentage of inhibition). […] The cell lines tested including lung cancer HCC827 (FIG. 2A), pancreatic cancer CFPAC-1 (FIG. 2B), stomach cancer N87 (FIG. 2C), colon cancer HT-29 (FIG. 2D), breast cancers MX-1 and HCC1806 (FIGS. 2E, F). Based on the results of cell proliferation assay after cancer cells were treated with antagonist at concentration of 5 μM for 72H, the relative inhibitory potency of AVR antagonists in comparison to MIA-602 is summarized in Table 3 A and B. Over 60 AVR compounds were tested in 12 cancer cell lines.
(§5) Based on the results of cell proliferation assay after cancer cells were treated with antagonist at concentration of 5 µM for 72H, * at concentration of 2 µM for 72 H.

[2] = system: KATOIII cells; test: In vitro cell viability, stomach cancer KATOIII; type: cell-based, human; conditions: 5 μM, 72 h; relative to MIA602 = 1; Table 3A
Experimental: as §1, §2, §3, §4

[3] = system: HCC827 cells; test: In vitro cell viability, lung cancer HCC827; type: cell-based, human; conditions: 5 μM, 72 h; relative to MIA602 = 1; Table 3A
Experimental: as §1, §2, §3, §4, §5

[4] = system: CFPAC-1 cells; test: In vitro cell viability, pancreatic cancer CFPAC-1; type: cell-based, human; conditions: 5 μM, 72 h; relative to MIA602 = 1; Table 3A
Experimental: as §1, §2, §3, §4, §5

[5] = system: PANC-1 cells; test: In vitro cell viability, pancreatic cancer PANC-1; type: cell-based, human; conditions: 5 μM, 72 h; relative to MIA602 = 1; Table 3A
Experimental: as §1, §2, §3, §4

[6] = system: J82 cells; test: In vitro cell viability, urothelial cancer J82; type: cell-based, human; conditions: 5 μM, 72 h; relative to MIA602 = 1; Table 3A
Experimental: as §1, §2, §3, §4

[7] = system: NCI-N87 xenograft; test: Xenograft tumor growth in nude mice, stomach cancer N87; type: in vivo; conditions: Panel D, 10 weeks, 2 μg/day s.c.
Experimental: The peptides' activity was compared with GHRH antagonist MIA-602. All statistical analyzses were performed from comparing GHRA antagonists to non-treated tumor (control).
Peptides and chemicals. GHRH antagonists MIA-602 and AVR-GHRH antagonists (see Table 2 above) were synthesized by solid phase methods and purified by HPLC. The peptides were dissolved in DMSO and further diluted in 10% 1, 2-propanediol. The final concentration of peptides was 50 µg/ml in 10% 1, 2-propanediol containing 0.1% of DMSO.
as §2, with “(NCI-N87), prostate” for “(NCI-N87 and KATOIII), urothelial (J82, RT4), prostatic”, “brest” for “breast”, “HCC-1806),” for “HCC 1806),”
Xenograft models of human cancers in nude mice. Female athymic (NCr nu/nu) nude mice, 5-to 6-weeks-old, obtained from the Envigo labs (Tampa, FL), were housed in laminar airflow cabinets under pathogen-free conditions with a 12-h light/12-h dark schedule, and were fed autoclaved standard chow and water. To generate mice with xenografted tumors, tumor xenografts were initiated by subcutaneous (s.c.) injection of […] human cancer cells into female nude mice. After about 4 weeks the resulting tumors were dissected and collected after removing necrosis tissues. The tumors were then cut into particles with size of ˜3 mm3 and transplanted s.c. by trocar needle into experimental animals. When tumors grew to the size of 50-60 mm3 (by volume), […] of 5 μg of GHRH antagonists MIA-602 or AVR-compounds (2-10 μg as indicated), or vehicle solutions (0.1% DMSO in 10% 1, 2-propanediol) respectively. Tumor sizes were measured weekly.
Statistical analysis. One-way ANOVA followed by Bonferroni comparison were performed. Data are expressed as Mean±SEM. To determine statistical significance between animal groups, two-tailed Student's t-test was conducted. Differences were considered significant when p<0.05.
Results. […] FIG. 1A-N represents in vivo inhibition of tumor growth during the treatment with GHRH antagonist MIA-602 and selected AVR antagonists in nude mice xenografted with various human tumors including pancreatic cancer PANC-1 (FIG. 1A) and CFPAC-1 (FIG. 1I); lung cancer HCC827 (FIGS. 1B, C) and H460 (FIG. 1H); stomach cancer N87 (FIGS. 1D-F); colon cancer HT-29 (FIG. 1G); breast cancer MX-1 and HCC-1806 (FIGS. 1J, K); ovarian cancer SK-OV-3 and OVACAR-3 (FIGS. 1L, M) and prostate cancer PC3 (FIG. 1N). See also Table 5.

Row | Compound | Relative inhibitory potency, Stomach N87 ([1]; relative to MIA602 = 1, Table 3A) | Relative inhibitory potency, Stomach KATOIII [2] | Relative inhibitory potency, Lung HCC827 [3] | Relative inhibitory potency, Pancreatic CFPAC-1 [4] | Relative inhibitory potency, Pancreatic Panc-1 [5] | Relative inhibitory potency, Urothelial J82 [6] | In vitro relative inhibitory potency in comparison to MIA-602, NCI-N87 ([1]; Table 3B) | Tumor Growth % [7] [%]
1 | CCCC[C@H](NC(=O)[C@@H](NC(=O)[C@H](CC(=O)O)NC(=O)[C@H](CCC(N)=O)NC(=O)[C@H](CC(C)C)NC(=O)[C@H](CC(C)C)NC(=O)[C@H](CCCN)NC(=O)[C@H](Cc1c[nH]cn1)NC(=O)[C@H](C)NC(=O)[C@H](CO)NC(=O)[C@H](CC(C)C)NC(=O)[C@H](CCC(N)=O)NC(=O)[C@H](CC)NC(=O)[C@H](CC(C)C)NC(=O)[C@@H](NC(=O)[C@H](CCCCN)NC(=O)[C@H](CCCNC(=N)N)NC(=O)[C@H](Cc1c(F)c(F)c(F)c(F)c1F)NC(=O)[C@H](CCCNC(=N)N)NC(=O)[C@H](C)NC(=O)[C@@H](NC(=O)[C@H](Cc1ccc(Cl)cc1)NC(=O)[C@@H](NC(=O)[C@H](C)NC(=O)[C@H](CC(=O)O)NC(=O)[C@@H](CCCNC(=N)N)NC(=O)[C@H](Cc1ccc(O)cc1)NC(=O)CCCCCCCCCCCNC(=O)Cc1ccccc1)[C@@H](C)CC)[C@@H](C)O)C(C)C)[C@@H](C)CC)C(=O)N[C@H](CCCNC(=N)N)C(=O)N[C@@H](CCCCNC(=N)N)C(N)=O [AVR-116, PhAC-Ada-Tyr-DArg-Asp-Ala-Ile-Cpa-Thr-Ala-Arg-5FPhe-Arg-Lys-Val-Leu-Abu-Gln-Leu-Ser-Ala-His-Orn-Leu-Leu-Gln-Asp-Ile-Nle-DArg-Har-NH2] ({PhAc-12Ado}-Y[dR]DAI[Phe(4-Cl)]TAR[Phe(F5)]RKVL[Abu]QLSAH[Orn]LLQDI[Nle][dR][hArg]-NH2) | 2.484 | 1.202 | 2.470 | 1.445 | 1.208 | 3.034 |  | 
2 | CCCC[C@H](NC(=O)[C@@H](NC(=O)[C@H](CC(=O)O)NC(=O)[C@H](CCC(N)=O)NC(=O)[C@H](CC(C)C)NC(=O)[C@H](CC(C)C)NC(=O)[C@H](CCCCN)NC(=O)[C@H](CCCNC(=N)N)NC(=O)[C@H](C)NC(=O)[C@H](CO)NC(=O)[C@H](CC(C)C)NC(=O)[C@H](CCC(N)=O)NC(=O)[C@H](CC)NC(=O)[C@H](CC(C)C)NC(=O)[C@@H](NC(=O)[C@H](CCCCN)NC(=O)[C@H](CCCNC(=N)N)NC(=O)[C@H](Cc1ccc(OC)cc1)NC(=O)[C@H](CCCCNC(=N)N)NC(=O)[C@H](CC(N)=O)NC(=O)[C@@H](NC(=O)[C@H](Cc1ccc(Cl)cc1)NC(=O)[C@@H](NC(=O)[C@H](C)NC(=O)[C@H](CC(=O)O)NC(=O)[C@@H](CCCNC(=N)N)NC(=O)[C@H](Cc1ccc(O)cc1)NC(=O)CCCCCCCCCCCNC(=O)Cc1c(F)c(F)c(F)c(F)c1F)[C@@H](C)CC)[C@@H](C)O)C(C)C)[C@@H](C)CC)C(=O)N[C@H](CCCNC(=N)N)C(=O)N[C@@H](CCCCNC(=N)N)C(=O)NCCCCCCCCCCCC(N)=O [AVR-333, 5FPhAC-Ada-Tyr-DArg-Asp-Ala-Ile-Cpa-Thr-Asn-Har-Tyr(Me)-Arg-Lys-Val-Leu-Abu-Gln-Leu-Ser-Ala-Arg-Lys-Leu-Leu-Gln-Asp-Ile-Nle-DArg-Har-Ada-NH2] ({Phenylacetyl(2,3,4,5,6-F5)-12Ado}-Y[dR]DAI[Phe(4-Cl)]TN[hArg]Y(Me)RKVL[Abu]QLSARKLLQDI[Nle][dR][hArg][12Ado]-NH2) |  |  |  |  |  |  | 1.4 | 454.00
